The source made the active and inactive calls. No cut-off for these calls is given here.
Key:
Histone deacetylase 3 = Histone deacetylase 3 (Homo sapiens, UniProt O15379); assay: Inhibition of human C-terminal His tagged HDAC3 (1 to 428 residues) expressed in baculovirus-infected Sf9 cells using Ac-peptide as substrate incubated for 4 hrs
[1] = biological target: T1, NAD-dependent protein deacetylase sirtuin-2 (Homo sapiens, UniProt Q8IXJ6); assay: Inhibition of human C-terminal His-tagged SIRT2 (50 to 356 residues) expressed in Escherichia coli using Ac-peptide as substrate incubated for 4 hrs followed by trypsin addition and further incubated for 2 hrs
T1 sequence (Q8IXJ6 whole entry): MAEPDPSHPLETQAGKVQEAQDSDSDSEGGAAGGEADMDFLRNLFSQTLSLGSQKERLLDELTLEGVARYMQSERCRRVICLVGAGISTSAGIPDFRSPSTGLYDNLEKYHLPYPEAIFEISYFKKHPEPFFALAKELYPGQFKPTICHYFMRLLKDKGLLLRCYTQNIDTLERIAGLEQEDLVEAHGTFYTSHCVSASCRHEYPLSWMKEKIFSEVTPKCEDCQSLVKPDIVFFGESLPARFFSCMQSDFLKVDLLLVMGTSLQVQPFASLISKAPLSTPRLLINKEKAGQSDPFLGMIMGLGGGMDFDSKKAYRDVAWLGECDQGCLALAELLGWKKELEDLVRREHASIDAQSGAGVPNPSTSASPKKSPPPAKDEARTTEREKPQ

[2] = In vivo inhibition of C-terminal TY1 fused HDAC1 in Plasmodium falcipuram 3D7 assessed as inhibition of parasite growth incubated for 4 hrs followed by compound washout and replacement with fresh medium with compounds measured after 68 hrs by SYBR Green I staining based fluorescence analysis; assay type: functional, organism-based, Plasmodium falciparum
Plasmodium falciparum [3] = assay: Inhibition of Plasmodium falcipuram recombinant HDAC1 using HDAC-Glo I/II as substrate at 50 to 800 nM preincubated for 90 mins by luminescence based microplate reader analysis; details: dose 50-800 nM
Plasmodium falciparum [4] = assay: Antimalarial activity against synchronized Plasmodium falcipuram 3D7 infected in human RBC assessed as irreversible inhibition of parasite growth at schizont stage at 40 nM treated 29 to 41 hpi incubated for 12 hrs followed by compound washout and replacement with fresh medium without compounds and measured after 4 days by flow cytometry; assay type: functional, organism-based
[5] = Apparent clearance in BALB/c mouse at 5 mg/kg, ip measured after upto 24 hrs by LC-MS/MS analysis; assay type: ADME, organism-based; details: in vivo, read-out: CLz/F (converted)
Plasmodium falciparum [6] = assay: Antimalarial activity against blood stage asynchronous Plasmodium falcipuram 3D7 assessed as parasite growth inhibition by measuring parasitemia at 10 to 100 nM incubated for 12 to 24 hrs by flow cytometry; assay type: functional, organism-based; details: dose 10-100 nM, time 12-24 hrs
[7] = Selectivity index, ratio of IC50 for cytotoxicity against human HepG2 cells to IC50 for antimalarial activity against asexual blood stage wild-type Plasmodium falciparum 3D7; assay type: toxicity, cell-based; details: read-out: Ratio IC50
Plasmodium falciparum [8] = assay: In vivo inhibition of C-terminal TY1 fused HDAC2 in Plasmodium falcipuram 3D7 assessed as inhibition of parasite growth incubated for 4 hrs followed by compound washout and replacement with fresh medium with compounds measured after 68 hrs by SYBR Green I staining based fluorescence analysis; assay type: functional, organism-based
Plasmodium falciparum [9] = assay: Antimalarial activity against ART-resistant Plasmodium falcipuram 6218 harbouring C580Y mutant infected in human RBC assessed as reduction in parasitemia in blood smear by measuring parasite survival ratio at ring stage at upto 700 nM incubated for 6 hrs followed by compound washout and replacement with fresh medium without compounds and measured after 66 hrs by ring stage survival assay; assay type: functional; details: dose nM <=700, time 6.0 hrs
[10] = Drug concentration in BALB/c mouse plasma at 5 mg/kg, ip measured upto 24 hrs by LC-MS/MS analysis; assay type: ADME, organism-based
[11] = biological target: T2, Protein deacetylase HDAC6 (Homo sapiens, UniProt Q9UBN7); assay: Inhibition of recombinant human full length N-terminal GST tagged HDAC6 (1 to 1215 residues) expressed in baculovirus-infected Sf9 cells using Ac-peptide as substrate incubated for 4 hrs
T2 sequence (Q9UBN7 whole entry): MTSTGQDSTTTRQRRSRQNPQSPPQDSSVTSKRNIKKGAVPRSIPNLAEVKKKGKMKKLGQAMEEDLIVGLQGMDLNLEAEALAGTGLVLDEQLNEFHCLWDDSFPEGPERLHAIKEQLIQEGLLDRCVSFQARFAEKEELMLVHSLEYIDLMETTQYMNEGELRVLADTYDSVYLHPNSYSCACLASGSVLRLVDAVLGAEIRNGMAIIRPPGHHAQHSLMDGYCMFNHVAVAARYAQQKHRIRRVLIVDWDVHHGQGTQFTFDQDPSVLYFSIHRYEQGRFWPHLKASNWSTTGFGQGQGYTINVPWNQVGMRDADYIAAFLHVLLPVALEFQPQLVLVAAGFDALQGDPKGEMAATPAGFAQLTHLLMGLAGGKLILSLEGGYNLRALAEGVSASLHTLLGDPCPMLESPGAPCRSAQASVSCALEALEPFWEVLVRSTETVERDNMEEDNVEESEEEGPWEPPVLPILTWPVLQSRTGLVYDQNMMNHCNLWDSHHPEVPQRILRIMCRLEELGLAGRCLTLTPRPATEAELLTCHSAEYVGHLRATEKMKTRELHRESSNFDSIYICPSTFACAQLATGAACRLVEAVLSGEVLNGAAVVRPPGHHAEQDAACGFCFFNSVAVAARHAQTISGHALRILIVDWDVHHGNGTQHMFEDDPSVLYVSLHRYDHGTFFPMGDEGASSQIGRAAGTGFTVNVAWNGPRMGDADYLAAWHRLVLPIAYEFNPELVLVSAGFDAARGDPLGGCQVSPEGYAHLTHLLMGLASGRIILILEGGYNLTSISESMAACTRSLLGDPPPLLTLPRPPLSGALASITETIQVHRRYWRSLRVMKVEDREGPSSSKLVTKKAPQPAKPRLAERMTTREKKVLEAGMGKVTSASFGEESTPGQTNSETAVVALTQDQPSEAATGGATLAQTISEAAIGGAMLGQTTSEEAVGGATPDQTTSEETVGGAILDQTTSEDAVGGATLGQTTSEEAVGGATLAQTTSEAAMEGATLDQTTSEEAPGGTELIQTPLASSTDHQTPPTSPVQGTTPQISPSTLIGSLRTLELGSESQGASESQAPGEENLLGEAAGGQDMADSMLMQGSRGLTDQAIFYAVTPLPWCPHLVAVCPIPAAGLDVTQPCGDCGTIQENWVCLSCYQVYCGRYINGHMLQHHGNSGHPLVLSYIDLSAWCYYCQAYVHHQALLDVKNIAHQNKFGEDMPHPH

Plasmodium yoelii = assay: Antimalarial activity against blood stage Plasmodium yoelii infected in BALB/c mouse assessed as parasite recrudescence by measuring parasitemia at 30 mg/kg, ip qd for 5 days and measured for 8 to 16 days; assay type: functional; details: time 8-16 day
Plasmodium falciparum [12] = assay: Antimalarial activity against synchronized Plasmodium falcipuram 3D7 infected in human RBC assessed as fold reduction in reinvasion of ring stage parasites at 40 nM incubated for 12 hrs followed by compound washout and replacement with fresh medium without compounds and measured at 50 hrs post infection by flow cytometry; assay type: functional
[13] = Toxicity in BALB/c mouse infected with blood stage Plasmodium yoelii assessed as animal death at 30 to 90 mg/kg, ip qd for 5 days and measured on day 60; assay type: organism-based; details: in vivo, 1440 h, dose 30-90 mg/kg, time 60 day

Sequence of Histone deacetylase 3 (O15379 whole entry, the tested form may be a part): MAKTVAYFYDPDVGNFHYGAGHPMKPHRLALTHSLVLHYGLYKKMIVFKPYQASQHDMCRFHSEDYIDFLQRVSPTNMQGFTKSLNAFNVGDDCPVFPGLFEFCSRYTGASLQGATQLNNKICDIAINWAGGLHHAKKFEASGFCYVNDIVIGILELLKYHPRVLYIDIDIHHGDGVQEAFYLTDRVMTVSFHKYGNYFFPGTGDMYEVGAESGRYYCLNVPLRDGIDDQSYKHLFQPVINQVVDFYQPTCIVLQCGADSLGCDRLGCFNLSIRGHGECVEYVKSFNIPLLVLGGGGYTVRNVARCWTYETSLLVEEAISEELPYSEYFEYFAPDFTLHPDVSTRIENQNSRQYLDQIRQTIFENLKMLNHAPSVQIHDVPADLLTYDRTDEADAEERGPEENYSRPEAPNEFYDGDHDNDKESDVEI

Compound Cl.Cn1cc(CN2CC3(CCN(c4ncc(C(=O)NO)cn4)C3)C2)c2ccc(C#N)cc21 has an IC50 (Histone deacetylase 3) of 5.2 nM, an IC50 [1] of over 10000 nM and an IC50 [2] of 82.5 nM. For the same compound, the inhibition (Plasmodium falciparum [3]) was “Active”, the Activity (Plasmodium falciparum [4]) was “Active” and the CL/F [5] was 130 mL/min/kg. For the same compound, the Activity (Plasmodium falciparum [6]) was “Active”, the selectivity ratio [7] was 810 and the inhibition (Plasmodium falciparum [8]) was “Active”. For the same compound, the Activity (Plasmodium falciparum [9]) was “Active”, the concentration at 24 h [10] was 89 ng/mL and the IC50 [11] was 85.5 nM. For the same compound, the Activity (Plasmodium yoelii) was 0.02%, the “fold change (FC)” value (Plasmodium falciparum [12]) was 10 and the Activity [13] was “Non-Toxic”.

From ChEMBL document CHEMBL5046276 (J Med Chem, 2022)
